Read-outs that look alike come from different tables or passages of the source.
How the values were obtained:
Assay type in all cases: cell-based
[1] = target: T1, human muscarinic M4 receptor (Homo sapiens, UniProt P08173); assay: Alphascreen Surefire phospho-ERK1/2 functional assay, M4; conditions: for EC50 / % Emax cf. ACh (M4): CHO cells stably expressing human M4; for EC50: agonist 5 min, 37° C., read-out: pEC50 M4 (converted); for Emax: CHO, read-out: % Emax cf. ACh (M4), CHO cells stably expressing human M4; for Emax / % Emax cf. ACh (M4): Emax relative to ACh
T1 construct: expressed in transfected cells
T1 sequence (P08173 1-479): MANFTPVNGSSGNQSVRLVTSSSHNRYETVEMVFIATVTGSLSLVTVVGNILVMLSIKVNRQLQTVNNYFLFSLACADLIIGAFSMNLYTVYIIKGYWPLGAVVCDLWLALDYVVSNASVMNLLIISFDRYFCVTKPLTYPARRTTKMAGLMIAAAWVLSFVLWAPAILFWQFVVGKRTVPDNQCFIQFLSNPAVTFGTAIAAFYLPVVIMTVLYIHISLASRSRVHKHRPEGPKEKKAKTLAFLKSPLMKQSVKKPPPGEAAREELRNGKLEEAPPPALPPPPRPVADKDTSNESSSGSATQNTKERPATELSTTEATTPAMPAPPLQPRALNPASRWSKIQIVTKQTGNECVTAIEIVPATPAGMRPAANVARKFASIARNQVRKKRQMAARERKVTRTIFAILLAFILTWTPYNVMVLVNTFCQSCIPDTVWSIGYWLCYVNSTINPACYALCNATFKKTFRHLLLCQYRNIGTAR
Experimental: (§1) ERK1/2 phosphorylation is a downstream consequence of both Gq/11 and Gi/o protein coupled receptor activation, making it highly suitable for the assessment of M1, M3 (Gq/11 coupled) and M2, M4 receptors (Gi/o coupled), rather than using different assay formats for different receptor subtypes. CHO cells stably expressing the human muscarinic M1, M2, M3 or M4 receptor were plated (25K/well) onto 96-well tissue culture plates in MEM-alpha+10% dialysed FBS. Once adhered, cells were serum-starved overnight. Agonist stimulation was performed by the addition of 5 μL agonist to the cells for 5 min (37° C.). Media was removed and 50 μL of lysis buffer added. After 15 min, a 4 μL sample was transferred to 384-well plate and 7 μL of detection mixture added. […]

[2] = target: T2, human muscarinic M2 receptor (Homo sapiens, UniProt P08172); assay: Alphascreen Surefire phospho-ERK1/2 functional assay, M2; conditions: for Emax: CHO
T2 sequence (P08172 1-466): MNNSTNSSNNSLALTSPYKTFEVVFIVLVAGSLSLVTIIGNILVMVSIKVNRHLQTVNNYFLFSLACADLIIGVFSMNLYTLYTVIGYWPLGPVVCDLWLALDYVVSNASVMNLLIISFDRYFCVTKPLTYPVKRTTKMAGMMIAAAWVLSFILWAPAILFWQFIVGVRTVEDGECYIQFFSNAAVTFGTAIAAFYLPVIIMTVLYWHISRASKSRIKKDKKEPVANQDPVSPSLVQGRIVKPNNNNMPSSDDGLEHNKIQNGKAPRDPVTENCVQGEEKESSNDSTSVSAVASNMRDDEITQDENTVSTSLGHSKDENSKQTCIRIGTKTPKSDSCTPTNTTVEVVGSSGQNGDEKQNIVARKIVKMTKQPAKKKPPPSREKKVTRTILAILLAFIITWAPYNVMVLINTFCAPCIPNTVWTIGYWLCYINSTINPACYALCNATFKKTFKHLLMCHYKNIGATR
Experimental: as §1

[3] = target: T3, human muscarinic M3 receptor (Homo sapiens, UniProt P20309); assay: Alphascreen Surefire phospho-ERK1/2 functional assay, M3; conditions: for Emax: CHO
T3 construct: expressed in transfected cells
T3 sequence (P20309 whole entry): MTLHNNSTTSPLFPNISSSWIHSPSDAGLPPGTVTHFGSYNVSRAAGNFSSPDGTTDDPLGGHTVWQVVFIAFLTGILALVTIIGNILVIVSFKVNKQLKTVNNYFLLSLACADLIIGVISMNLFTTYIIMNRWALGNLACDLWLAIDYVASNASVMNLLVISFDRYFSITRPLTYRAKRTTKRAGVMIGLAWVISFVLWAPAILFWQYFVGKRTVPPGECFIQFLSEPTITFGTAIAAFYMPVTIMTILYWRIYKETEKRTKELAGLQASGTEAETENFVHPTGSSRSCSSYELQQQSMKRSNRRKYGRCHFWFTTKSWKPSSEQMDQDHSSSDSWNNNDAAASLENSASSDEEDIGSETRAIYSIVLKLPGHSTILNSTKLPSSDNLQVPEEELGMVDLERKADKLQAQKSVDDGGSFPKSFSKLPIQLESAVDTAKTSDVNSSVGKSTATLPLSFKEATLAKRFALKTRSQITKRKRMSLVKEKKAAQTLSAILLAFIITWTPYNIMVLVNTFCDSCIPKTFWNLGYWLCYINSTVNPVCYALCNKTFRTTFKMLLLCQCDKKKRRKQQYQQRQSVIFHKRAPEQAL
Experimental: as §1

[4] = target: T4, human muscarinic M1 receptor (Homo sapiens, UniProt P11229); assay: Alphascreen Surefire phospho-ERK1/2 functional assay, M1; conditions: for Emax: CHO, read-out: % Emax cf. ACh (M1), CHO cells stably expressing human M1; for Emax / % Emax cf. ACh (M1): Emax relative to ACh; for EC50: agonist 5 min, 37° C.
T4 sequence (P11229 1-460): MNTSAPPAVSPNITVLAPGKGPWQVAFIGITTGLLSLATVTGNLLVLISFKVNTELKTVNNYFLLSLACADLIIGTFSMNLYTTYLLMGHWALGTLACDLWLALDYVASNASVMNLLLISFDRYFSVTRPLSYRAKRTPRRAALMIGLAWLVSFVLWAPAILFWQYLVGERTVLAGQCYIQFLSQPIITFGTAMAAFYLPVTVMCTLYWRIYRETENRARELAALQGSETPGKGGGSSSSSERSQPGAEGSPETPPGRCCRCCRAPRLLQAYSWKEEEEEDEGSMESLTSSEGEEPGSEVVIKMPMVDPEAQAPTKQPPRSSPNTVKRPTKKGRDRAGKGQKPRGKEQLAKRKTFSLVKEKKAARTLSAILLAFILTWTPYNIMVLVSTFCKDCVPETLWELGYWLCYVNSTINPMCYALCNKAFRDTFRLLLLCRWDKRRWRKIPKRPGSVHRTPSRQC
Experimental: as §1

[5] = pEC50 M1, CHO cells stably expressing human M1
[6] = CHO cells stably expressing human M1
[7] = CHO cells stably expressing human M2, agonist 5 min, 37° C., read-out: pEC50 M2 (converted)
[8] = read-out: % Emax cf. ACh (M2), CHO cells stably expressing human M2, Emax relative to ACh
[9] = CHO cells stably expressing human M3, agonist 5 min, 37° C., read-out: pEC50 M3 (converted)
[10] = read-out: % Emax cf. ACh (M3), CHO cells stably expressing human M3, Emax relative to ACh
[11] = CHO cells stably expressing human M1, read-out: pEC50 M1 (converted)

| Structure (SMILES) | EC50 [1] | Emax [1] | EC50 [2] | Emax ([2]; read-out: % Emax cf. ACh (M2)) | EC50 [3] | Emax ([3]; read-out: % Emax cf. ACh (M3)) | Emax [4] | EC50 [4, 5] | % Emax cf. ACh (M4) [1] | % Emax cf. ACh (M1) [4, 6] | EC50 [2, 7] | Emax [2, 8] | EC50 [3, 9] | Emax [3, 10] | EC50 [4, 11] | % Emax cf. ACh (M2) ([2]; CHO cells stably expressing human M2, Emax relative to ACh) | pEC50 M2 ([2]; CHO cells stably expressing human M2, agonist 5 min, 37° C.) | % Emax cf. ACh (M3) ([3]; CHO cells stably expressing human M3, Emax relative to ACh) | pEC50 M3 ([3]; CHO cells stably expressing human M3, agonist 5 min, 37° C.) |
| --- | --- | --- | --- | --- | --- | --- | --- | --- | --- | --- | --- | --- | --- | --- | --- | --- | --- | --- | --- |
| CCc1noc(N2C3CCC2CC(N2CCC4(CC2)CNC(=O)C4)C3)n1 (single isomer, unassigned) [6-3 Isomer 2] | > 20000 nM | 7% | > 20 µM | 3% | > 20 µM | 1% | 33% | 32.4 nM |  |  |  |  |  |  |  |  |  |  |  |
| CC1(NC(=O)C2CCN(C3CC4CCC(C3)N4c3nc(C(F)(F)F)no3)CC2)CCC1 (single isomer, unassigned) [12-14 Isomer 2] | 331 nM |  | > 20 µM | 25% | > 20 µM | 9% |  | 18.6 nM | (40) % | (115) % |  |  |  |  |  |  |  |  |  |
| Cc1noc(N2CC3CCC2CC3N2CCC(n3cccn3)CC2)n1 (single isomer, unassigned) [7-1 Isomer 1] | 151 nM | 85% |  |  |  |  | 18% |  |  |  | > 20 µM | 11% | > 20 µM | 7% | > 20000 nM |  |  |  |  |
| Cc1noc(N2C3CCCC2CC(N2CCC4(CC2)CNC(=O)O4)C3)n1 (single isomer, unassigned) [8-3 Isomer 1] | > 20000 nM | 67% |  | 4% |  | 1% | 39% |  |  |  | > 20 µM |  | > 20 µM |  | 295 nM |  |  |  |  |
| Cc1noc(N2CC3CCC2CC3N2CCC3(CC2)CNC(=O)O3)n1 (single isomer, unassigned) [12-2 Isomer 2] | > 20000 nM | 18% |  |  |  |  | 80% |  |  |  | > 20 µM | 14% | > 20 µM | 1% | 398 nM |  |  |  |  |
| Cc1noc(N2CCC3(CC(N4CCC(n5cccn5)CC4)C3)C2)n1 (single isomer, unassigned) [2-1 Isomer 2] | 302 nM | 41% |  |  |  |  | 56% |  |  |  | > 20 µM | 2% | > 20 µM | 3% | > 20000 nM |  |  |  |  |
| Cc1noc(N2C3CCC2CC(N2CCC(n4cccn4)CC2)C3)n1 (single isomer, unassigned) [6-1 Isomer 1] | 295 nM | 51% |  | 2% |  | 2% | 23% |  |  |  | > 20 µM |  | > 20 µM |  | > 20000 nM |  |  |  |  |
| Cc1noc(N2CC3CC(N4CCC5(CC4)CNC(=O)O5)CC2C3)n1 (single isomer, unassigned) [11-3 Isomer 2] | > 20000 nM | 11% |  |  |  |  | 65% |  |  |  | > 20 µM | 21% | > 20 µM | 22% | 70.8 nM |  |  |  |  |
| Cc1noc(N2CC3CCC2CC3N2CCC(n3cccn3)CC2)n1 (single isomer, unassigned) [7-1 Isomer 2] | 85.1 nM |  |  |  |  |  |  |  | (99) % | (33) % |  |  |  |  | 2290 nM | (15) % | <4.70 | (6) % | <4.70 |
